Test results published in US5998594A, “Self-assembling, chromogenic receptors for the recognition of medically important substrates and their method of use” (University of Pittsburgh of the Commonwealth System of …, priority 1994, dated 1999).

What was measured:
[1] = UV-vis titration (ΔA550) with glutaric acid in CHCl3; format: binding
Procedure: FIG. 3 discloses the change in the visible absorption spectrum of Cu(1)2^+ BF4^- upon addition of glutaric acid in CHCl3 [Cu(1)2^+ BF4^- ]=0.106 mM, [glutaric acid]=0-0.5 mM.
FIG. 4 discloses the change in the visible absorption spectrum of [Cu(L)2^+ BF4^- ] upon addition of glutaric acid in CHCl3. [Cu(L)2^+ BF4^- ]=0-0.125 mM [glutaric acid]=0-0.40 mM.
(§1) Complexation of Receptor 1 with Dicarboxylic Acids. Receptor 1 is a bis(acylaminopyridine) receptor and as such was expected to form strong bidentate interactions with dicarboxylic acids in chloroform. This was indeed the case, as 1 was found by NMR to bind glutaric acid with an association constant of 3.6×10^4 M^-1. Large changes in proton chemical shifts of 1 indicate that the dicarboxylic acid is hydrogen bonded simultaneously to the two acylaminopyridines moieties. […] The contribution of the phenanthroline to binding is uncertain, but it appears to play only a minor role; no protons on the phenanthroline ring shifted more than 0.014 ppm during the course of the titration. […] The stoichiometry of the complexes was 2:1 as determined by the concentration of dicarboxylic acid at which saturation of the receptor was found and independently determined by a Job's plot. A Job's plot is used to measure stoichiometry based on continuous variations of constant concentrations. Binding was most conveniently followed by UV-vis spectroscopy (ΔA550) and was checked against NMR results for pimelic acid and glutaric acid. The binding data was analyzed by assuming that two independent and equal bidentate binding sites are interacting with the substrate. In this way a single association constant is obtained that represents the strength of binding of one of the receptor binding sites with one substrate. […] An exception was N-Cbz-glutamic acid, which is understandable because there are several diastereotopic complexes present (vide infra), each with a different Ka.
(§2) From comparison of FIG. 3 with FIG. 4 which is a change in the visible absorption spectrum of Cu(L)2^+ BF4^- upon addition of glutaric acid, it is clear that the bis-dicarboxylic acid receptor, Cu(1)2^+ BF4^-, is more chromogenic than a mono-dicarboxylic acid receptor, Cu(L)2^+ BF4^-. [drawing 1] The relative change in A550 is 3-4 times greater for Cu(1)2^+ BF4^- than for Cu(L)2^+ BF4^-. A summary of the spectral changes that occur upon complex formation are present in Table 2 below. […]
The origin of the chromogenic effect is definitely a direct result of the bidentate binding of dicarboxylic acids to the receptors. Addition of large excesses of monocarboxylic acids (acetic or trifluoroacetic) to a CHCl3 solution of either Cu(I)-based receptor leads to only minor changes in the absorbance spectrum. […]

[2] = UV-vis titration (ΔA550) with pimelic acid in CHCl3; format: binding
Excerpt: as §1
(§3) Also reported in Table 2 are the λmax and the relative change in the absorptivity at 550 nm for each substrate/receptor combination. The changes in the absorption spectra are definitely substrate dependent. For example, complexation of pimelic acid results in a less pronounced increase in the shoulder near the red edge and a smaller blue shift in λmax (for Cu(1)2^+ BF4^-,λmax =445 nm) than complexation of the 5-carbon acids, glutaric and N-Cbz-glutamic. […]

[3] = UV-vis titration (ΔA550) with 1,3-phenylenediacetic acid in CHCl3; format: binding
Excerpt: as §1, §3

[4] = UV-vis titration (ΔA550) with N-Cbz-glutamic acid in CHCl3; format: binding
Excerpt: Complexation of Receptor 1 with Dicarboxylic Acids. Receptor 1 is a bis(acylaminopyridine) receptor and as such was expected to form strong bidentate interactions with dicarboxylic acids in chloroform. This was indeed the case, as 1 was found by NMR to bind glutaric acid with an association constant of 3.6×10^4 M^-1. Large changes in proton chemical shifts of 1 indicate that the dicarboxylic acid is hydrogen bonded simultaneously to the two acylaminopyridines moieties. […] The contribution of the phenanthroline to binding is uncertain, but it appears to play only a minor role; no protons on the phenanthroline ring shifted more than 0.014 ppm during the course of the titration. […] The stoichiometry of the complexes was 2:1 as determined by the concentration of dicarboxylic acid at which saturation of the receptor was found and independently determined by a Job's plot. A Job's plot is used to measure stoichiometry based on continuous variations of constant concentrations. […] The binding data was analyzed by assuming that two independent and equal bidentate binding sites are interacting with the substrate. […]
In the binding mode proposed in FIG. 5, the structure of the 2:1 complex of glutaric acid with Cu(1)2^+ BF4^- is chiral, similar to a double helix. […] This complicates the analysis of binding because six possibly different binding constants need to be evaluated. […]

[5] = NMR titration with glutaric acid; format: binding
Excerpt: (§4) Complexation of Receptor 1 with Dicarboxylic Acids. Receptor 1 is a bis(acylaminopyridine) receptor and as such was expected to form strong bidentate interactions with dicarboxylic acids in chloroform. This was indeed the case, as 1 was found by NMR to bind glutaric acid with an association constant of 3.6×10^4 M^-1. Large changes in proton chemical shifts of 1 indicate that the dicarboxylic acid is hydrogen bonded simultaneously to the two acylaminopyridines moieties. […] The contribution of the phenanthroline to binding is uncertain, but it appears to play only a minor role; no protons on the phenanthroline ring shifted more than 0.014 ppm during the course of the titration. […] The stoichiometry of the complexes was 2:1 as determined by the concentration of dicarboxylic acid at which saturation of the receptor was found and independently determined by a Job's plot. A Job's plot is used to measure stoichiometry based on continuous variations of constant concentrations. Binding was most conveniently followed by UV-vis spectroscopy (ΔA550) and was checked against NMR results for pimelic acid and glutaric acid. The binding data was analyzed by assuming that two independent and equal bidentate binding sites are interacting with the substrate. In this way a single association constant is obtained that represents the strength of binding of one of the receptor binding sites with one substrate. […]

[6] = NMR titration with pimelic acid; format: binding
Excerpt: as §4

[7] = complexation with dicarboxylic acids in CHCl3 (UV-vis, NMR, Job's plot); format: binding
Excerpt: as §1, §2

[8] = air stability; format: physicochemical; conditions: Cu(I) complex
[9] = CHCl3, UV-vis ΔA550, per binding site

| SMILES | Binding Constant (Ka) UV-vis ([1]; glutaric acid, CHCl3, UV-vis ΔA550, per binding site) [M⁻¹] | relative change in A550, compared with Cu(L)2^+ BF4^- ([1]; glutaric acid, FIG. 3 vs FIG. 4) | % Increase ( = 550 nm) ([1]; glutaric acid, absorptivity at 550 nm) [%] | color change upon complexation ([1]; two equivalents of glutaric acid) | spectral change relative to the other dicarboxylic acids [2] | Binding Constant (Ka) UV-vis [2, 9] [M⁻¹] | % Increase ( = 550 nm) ([2]; absorptivity at 550 nm) [%] | spectral change relative to the other dicarboxylic acids [3] | Binding Constant (Ka) UV-vis [3, 9] [M⁻¹] | % Increase ( = 550 nm) ([3]; absorptivity at 550 nm) [%] | Binding Constant (Ka) UV-vis ([4]; CHCl3, UV-vis ΔA550, several diastereomeric complexes, all Ka assumed equal) [M⁻¹] | % Increase ( = 550 nm) ([4]; absorptivity at 550 nm) [%] | Binding Constant (Ka) NMR [5] [M⁻¹] | Binding Constant (Ka) NMR [6] [M⁻¹] | positive cooperativity in binding of second equivalent of dicarboxylic acid [7] | color change on binding ([7]; each dicarboxylic acid of Table 1) | air stability [8] | association constant ([5]; uncoordinated receptor, chloroform) [M⁻¹] | receptor strength for dicarboxylic acids ([7]; uncoordinated ligand) |
| --- | --- | --- | --- | --- | --- | --- | --- | --- | --- | --- | --- | --- | --- | --- | --- | --- | --- | --- | --- |
| Cc1cccc(NC(=O)c2ccc(-c3ccc4ccc5ccc(-c6ccc(C(=O)Nc7cccc(C)n7)cc6)nc5c4n3)cc2)n1.Cc1cccc(NC(=O)c2ccc(-c3ccc4ccc5ccc(-c6ccc(C(=O)Nc7cccc(C)n7)cc6)nc5c4n3)cc2)n1.F[B-](F)(F)F.[Cu+] [Cu(1)2^+ BF4^-] | 78000 | 3-4 times | 101 | obvious color change from pale orange to bright red | smallest changes in the spectrum | 17000 | 62 | largest change | 35000 | 111 | 40000 | 105 | 71000 | 40000 | not observed | distinct color change from pale orange to bright red | air stable | – | – |
| Cc1cccc(NC(=O)c2ccc(-c3ccc4ccc5ccc(-c6ccc(C(=O)Nc7cccc(C)n7)cc6)nc5c4n3)cc2)n1 [Receptor 1] | – | – | – | – | – | – | – | – | – | – | – | – | – | – | – | – | – | 36000 | good receptor for dicarboxylic acids |
